From patent US6156724A, “Uses of didemnins as immunomodulating agents” (priority 1998, dated 2000)
Like-named read-outs stand apart in the source and are kept apart here. Numbered stars: 1 amine (or outer) side, 2 acyl side, 3 side chain; on linkers, the order of the positions; unused ones are H or OH. Bridge positions count the residues as written; N and C are the ends. Square brackets hold non-standard residues; d marks the D form. Peptide text beside a SMILES is read from it. * marks the point of attachment. X4 = CC[C@H](C)[C@@H](N[*:1])[C@@H](O)CC(=O)O[C@@H](C(C)C)[C@H](O)[C@H](C)C(=O)[*:2]; X5 = CC[C@@H](C)[C@@H](N[*:1])[C@@H](O)CC(=O)O[C@H](C(=O)[C@H](C)C(=O)[*:2])C(C)C; X1 = CC[C@H](C)[C@@H](N[*:1])[C@@H](O)CC(=O)O[C@H](C(=O)[C@H](C)C(=O)[*:2])C(C)C; NMeY = CN[C@@H](Cc1ccc(O)cc1)C(=O)O; dNMeL = CN[C@H](CC(C)C)C(=O)O; pGlu = O=C1CC[C@@H](C(=O)O)N1; Isobutyryl = CC(C)C(=O)*; Octanoyl = CCCCCCCC(=O)*; Cbz = O=C(OCc1ccccc1)*; Hexanoyl = CCCCCC(=O)*; Lac = C[C@H](O)C(=O)O; Propionyl = CCC(=O)*

How the values were obtained:
[1] = test system: concanavalin A-induced lymphoblasts (Con A splenocytes); assay: Lymphoblast viability (LbV) assay; settings: Con A-stimulated splenocytes (lymphoblasts), MTT
[2] = test system: Balb/c splenocytes (resting lymphocytes); assay: Lymphocyte viability (LcV) assay; format: cell-based, murine; settings: unstimulated Balb/c splenocytes, MTT
Experimental: Forty two (42) didemnin compounds (see Table 1) were evaluated for cytotoxicity to one of the lymphocyte populations in the MLR (i.e., Balb/c splenocytes). The purpose of the lymphocyte viability assay (LcV) is to measure metabolic activity in lymphocytes after they have been exposed to the compounds for the duration of an under conditions equivalent to the MLR. The inverse of the data yields cytotoxicity information about the compounds on murine lymphocytes. The rationale of using resting cells, in this case unstimulated lymphocytes, to measure cytotoxicity has a strategic importance. In the MLR the heterogenous cell populations are predominantly resting cells when the assay begins.
Test compounds were prepared in two sets as described above. Splenocytes were prepared as described previously from one murine strain (Balb/c), and a volume of 200 μL of the cell suspension was added to one set of test compounds and control wells.
Assay plates were incubated as in the MLR and then pulsed overnight 75 μL per well MTT-thiazolyl blue solution (150 μg). The plates were decanted and the resulting insoluble formazan crystals were dissolved in 200 μL of isopropyl alcohol. Absorbance at 570 nm was measured.
The LcV data were calculated as a percentage of basal metabolic activity, or percent viability, relative to BALB/c control, and an LC50 value was interpolated for each test compound.

[3] = test system: murine splenocytes (Balb/c and C57B1/6); assay: Two-way mixed lymphocyte reaction (MLR) assay;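 also: proliferation read as tritiated thymidine incorporation into newly made DNA after an overnight pulse, expressed as percent of control activity, IC50 interpolated per compound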
[4] = Balb/c + C57B1/6 splenocytes, 96 h, [3H]thymidine
[5] = read-out: two-way mixed lymphocyte reaction (MLR) suppression MLR, IC50, Balb/c + C57B1/6 splenocytes, 96 h, [3H]thymidine

| Compound | cytotoxicity to lymphocytes LbV, LC50 [1] | cytoxicity to lymphocytes LcV, LC50 [2] | cytoxicity to lymphocytes LcV, LC50 ([2]; highest concentration 10 μg/mL) | two-way mixed lymphocyte reaction (MLR) suppression MLR, IC50 [3, 4] | IC50 [3, 5] | IC50 ([3]; read-out: MLR IC50) |
| --- | --- | --- | --- | --- | --- | --- |
| CC[C@H](C)[C@H]1NC(=O)[C@@H](NC(=O)[C@@H](CC(C)C)N(C)C(=O)[C@@H]2CCCN2C(=O)C(C)C)[C@@H](C)OC(=O)[C@H](Cc2ccc(OC)cc2)N(C)C(=O)[C@@H]2CCCN2C(=O)[C@H](CC(C)C)NC(=O)[C@@H](C)C(=O)[C@H](C(C)C)OC(=O)C[C@@H]1O [Compound 33, [Isobutyryl^9]Didemnin B] (Isobutyryl-P[dNMeL]T[X1]LP[NMeY](Me); ester 3-C) | 0.204 nM | 2240 nM | 2.40 µg/mL | 0.041 ng/mL | 0.037 nM | – |
| Didemnin Y [Compound 42] | 1.1 nM | > 5570 nM | > 10 µg/mL | 0.89 ng/mL | 0.5 nM | – |
| CCC(=O)N1CCC[C@H]1C(=O)N(C)[C@H](CC(C)C)C(=O)N[C@@H]1C(=O)N[C@H]([C@@H](C)CC)[C@@H](O)CC(=O)O[C@@H](C(C)C)C(=O)[C@H](C)C(=O)N[C@@H](CC(C)C)C(=O)N2CCC[C@H]2C(=O)N(C)[C@@H](Cc2ccc(OC)cc2)C(=O)O[C@@H]1C [Compound 32, [Propionyl^9]Didemnin B] (Propionyl-P[dNMeL]T[X1]LP[NMeY](Me); ester 3-C) | 0.184 nM | 1980 nM | 2.20 µg/mL | 0.26 ng/mL | 0.23 nM | – |
| CC[C@H](C)[C@H]1NC(=O)[C@@H](NC(=O)[C@@H](CC(C)C)N(C)C(=O)[C@H]2CCCN2)[C@@H](C)OC(=O)[C@H](Cc2ccc(OC)cc2)N(C)C(=O)[C@@H]2CCCN2C(=O)[C@H](CC(C)C)NC(=O)[C@@H](C)C(=O)[C@H](C(C)C)OC(=O)C[C@@H]1O [Compound 29, N^α -(D-Pro)-Didemnin A] (H-[dP][dNMeL]T[X1]LP[NMeY](Me); ester 3-C) | 22 nM | > 9600 nM | > 10 µg/mL | 12.2 ng/mL | 11.7 nM | – |
| CCCCCC(=O)N(C)[C@H](CC(C)C)C(=O)N[C@@H]1C(=O)N[C@H]([C@@H](C)CC)[C@@H](O)CC(=O)O[C@@H](C(C)C)C(=O)[C@H](C)C(=O)N[C@@H](CC(C)C)C(=O)N2CCC[C@H]2C(=O)N(C)[C@@H](Cc2ccc(OC)cc2)C(=O)O[C@@H]1C [Compound 22, N^α -Hexanoyldidemnin A] (Hexanoyl-[dNMeL]T[X1]LP[NMeY](Me); ester 2-C) | 0.11 nM | 9600 nM | > 10 µg/mL | 0.022 ng/mL | 0.021 nM | – |
| CC[C@H](C)[C@H]1NC(=O)[C@@H](NC(=O)[C@@H](CC(C)C)N(C)C(=O)[C@@H]2CCCN2C(=O)[C@H](C)O)[C@@H](C)OC(=O)[C@H](Cc2ccc(O)cc2)NC(=O)[C@@H]2CCCN2C(=O)[C@H](CC(C)C)NC(=O)[C@@H](C)C(=O)[C@H](C(C)C)OC(=O)C[C@@H]1O [Compound 13, Didemnin N] | 210 nM | > 9200 nM | > 10 µg/mL | 37.0 ng/mL | 34.2 nM | – |
| CC[C@@H](C)[C@H]1NC(=O)[C@@H](NC(=O)[C@@H](CC(C)C)N(C)C(=O)OCc2ccccc2)[C@@H](C)OC(=O)[C@H](Cc2ccc(OC)cc2)N(C)C(=O)[C@@H]2CCCN2C(=O)[C@H](CC(C)C)NC(=O)[C@@H](C)C(=O)[C@H](C(C)C)OC(=O)C[C@@H]1O [Compound 5, Z-[(3S,4R,5R)-Ist^2]Didemnin A] (Cbz-[dNMeL]T[X5]LP[NMeY](Me); ester 2-C) | 12 nM | > 9300 nM | > 10 µg/mL | 0.30 ng/mL | 0.28 nM | – |
| CC[C@H](C)[C@H]1NC(=O)[C@@H](NC(=O)[C@@H](CC(C)C)N(C)C(=O)[C@@H]2CCCN2C(=O)[C@H](C)OC(=O)[C@H](CCC(N)=O)NC(=O)[C@H](CCC(N)=O)NC(=O)[C@@H]2CCC(=O)N2)[C@@H](C)OC(=O)[C@H](Cc2ccc(OC)cc2)N(C)C(=O)[C@@H]2CCCN2C(=O)[C@H](CC(C)C)NC(=O)[C@@H](C)C(=O)[C@H](C(C)C)OC(=O)C[C@@H]1O [Compound 39, Didemnin E] ([pGlu]QQ[Lac]P[dNMeL]T[X1]LP[NMeY](Me); ester 7-C) | 1.4 nM | > 6770 nM | > 10 µg/mL | 0.012 ng/mL | 0.0084 nM | 0.0084 nM |
| CC[C@H](C)[C@H]1NC(=O)[C@@H](NC(=O)[C@@H](CC(C)C)N(C)C(=O)[C@@H]2CCCN2C(=O)[C@H](C)O)[C@@H](C)OC(=O)[C@H](CC2CCCCC2)N(C)C(=O)[C@@H]2CCCN2C(=O)[C@H](CC(C)C)NC(=O)[C@@H](C)C(=O)[C@H](C(C)C)OC(=O)C[C@@H]1O [Compound 16, [H6 -N-MePhe^6]Didemnin B] | 0.73 nM | > 9200 nM | > 10 µg/mL | 0.57 ng/mL | 0.52 nM | – |
| CCCCCCCC(=O)N(C)[C@H](CC(C)C)C(=O)N[C@@H]1C(=O)N[C@H]([C@@H](C)CC)[C@@H](O)CC(=O)O[C@@H](C(C)C)C(=O)[C@H](C)C(=O)N[C@@H](CC(C)C)C(=O)N2CCC[C@H]2C(=O)N(C)[C@@H](Cc2ccc(OC)cc2)C(=O)O[C@@H]1C [Compound 23, N^α -Octanoyldidemnin A] (Octanoyl-[dNMeL]T[X1]LP[NMeY](Me); ester 2-C) | 21 nM | > 9350 nM | > 10 µg/mL | 5.50 ng/mL | 5.1 nM | – |
| CC[C@H](C)[C@@H](NC(=O)[C@@H](NC(=O)[C@@H](CC(C)C)NC)[C@@H](C)O)[C@@H](O)CC(=O)O[C@H](C(=O)[C@H](C)C(=O)N[C@@H](CC(C)C)C(=O)N1CCC[C@H]1C(=O)N(C)[C@@H](Cc1ccc(OC)cc1)C(=O)O)C(C)C [Compound 17, Acyclodidemnin A] (H-[dNMeL]T[X1]LP[NMeY](Me)-OH) | 240 nM | > 10400 nM | > 10 µg/mL | 0.54 ng/mL | 0.57 nM | – |
| [Phth-Ala^9 ]DB [Compound 8] | 0.81 nM | > 8100 nM | > 10 µg/mL | 0.49 ng/mL | 0.39 nM | – |
| CC[C@H](C)[C@H]1NC(=O)[C@@H](NC(=O)[C@@H](CC(C)C)NC)[C@@H](C)OC(=O)[C@H](Cc2ccc(OC)cc2)N(C)C(=O)[C@@H]2CCCN2C(=O)[C@H](CC(C)C)NC(=O)[C@@H](C)C(=O)[C@H](C(C)C)OC(=O)C[C@@H]1OC(C)=O [Compound 7, O-Acetyldidemnin A] | 77 nM | > 10000 nM | > 10 µg/mL | 100 ng/mL | 100 nM | – |
| CCC(=O)N(C)[C@H](CC(C)C)C(=O)N[C@@H]1C(=O)N[C@H]([C@@H](C)CC)[C@@H](O)CC(=O)O[C@@H](C(C)C)C(=O)[C@H](C)C(=O)N[C@@H](CC(C)C)C(=O)N2CCC[C@H]2C(=O)N(C)[C@@H](Cc2ccc(OC)cc2)C(=O)O[C@@H]1C [Compound 19, N^α -Propionyldidemnin A] (Propionyl-[dNMeL]T[X1]LP[NMeY](Me); ester 2-C) | 0.068 nM | 6500 nM | 6.50 µg/mL | 0.37 ng/mL | 0.37 nM | – |
| CC[C@H](C)[C@H]1NC(=O)[C@@H](NC(=O)[C@@H](CC(C)C)NC)[C@@H](C)OC(=O)[C@H](Cc2ccc(OC)cc2)N(C)C(=O)[C@@H]2CCCN2C(=O)[C@H](CC(C)C)NC(=O)[C@@H](C)[C@@H](O)[C@H](C(C)C)OC(=O)C[C@@H]1O [Compound 10, [(2S,3R,4S)-H2 Hip^3]Didemnin A] (H-[dNMeL]T[X4]LP[NMeY](Me); ester 2-C) | 460 nM | > 10600 nM | > 10 µg/mL | 29.0 ng/mL | 30.5 nM | – |
